Results published in ChEMBL document CHEMBL1201862, “PubChem BioAssay data set” (2004).
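Each compound was tested at five concentrations against cells in 96-well plates for 48 hours. GI50: concentration for 50% inhibition of growth.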 Activity calls are given as the source filed them. No stated cut-off is given here; in the data, active = GI50 up to about 1.1 µM and inactive = higher.

What was measured:
Assay in all cases: DTP human tumour cell line panel, 48 h
BT-549 = test system: BT-549
COLO 205 = test system: COLO 205
HCC 2998 = test system: HCC 2998
HCT-15 = test system: HCT-15
HL-60 = test system: HL-60
HOP-62 = test system: HOP-62
Hs-578T = test system: Hs-578T
K562 = test system: K562
MCF7 = test system: MCF7
NCI-H23 = test system: NCI-H23
NCI-H460 = test system: NCI-H460
NCI/ADR-RES = test system: NCI/ADR-RES
OVCAR-4 = test system: OVCAR-4
PC-3 = test system: PC-3
SF-268 = test system: SF-268
SK-MEL-28 = test system: SK-MEL-28
SK-MEL-2 = test system: SK-MEL-2
SN12C = test system: SN12C
U-251 = test system: U-251
HOP-92 = test system: HOP-92

SMILES	GI50 (BT-549)	GI50 (COLO 205)	GI50 (HCC 2998)	GI50 (HCT-15) [µM]	GI50 (HL-60)	GI50 (HOP-62)	GI50 (Hs-578T)	GI50 (K562)	GI50 (MCF7)	GI50 (NCI-H23)	GI50 (NCI-H460)	GI50 (NCI/ADR-RES)	GI50 (OVCAR-4)	GI50 (PC-3)	GI50 (SF-268)	GI50 (SK-MEL-28)	GI50 (SK-MEL-2)	GI50 (SN12C)	GI50 (U-251)	GI50 (HOP-92)
COP(=O)(/C=C/c1cc(C(=O)OCc2ccccc2)n(S(=O)(=O)c2ccccc2)c1)OC	> 100 µM (inactive)	> 100 µM (inactive)	> 100 µM (inactive)	> 100	> 100 µM (inactive)	> 100 µM (inactive)	> 100 µM (inactive)	> 100 µM (inactive)	> 100 µM (inactive)	> 100 µM (inactive)	> 100 µM (inactive)	> 100 µM (inactive)	> 100 µM (inactive)	> 100 µM (inactive)	> 100 µM (inactive)	> 100 µM (inactive)	> 100 µM (inactive)	> 100 µM (inactive)	> 100 µM (inactive)	
O=C1CC2(CCC(O)(c3cccs3)C(C(=O)c3cccs3)C2)C(=O)c2ccccc2N1 (stereo not drawn)	> 100 µM (inactive)	33.7 µM (inactive)	38.5 µM (inactive)	28.5	29.2 µM (inactive)	> 100 µM (inactive)	> 100 µM (inactive)	40.8 µM (inactive)	77.4 µM (inactive)	> 100 µM (inactive)	16.5 µM (inactive)	67.1 µM (inactive)		51.8 µM (inactive)	> 100 µM (inactive)		> 100 µM (inactive)	> 100 µM (inactive)	90.4 µM (inactive)	> 100 µM (inactive)
CCOC(=O)C(Cc1ccc(OC(=O)c2ccc(OC)cc2OC)cc1)NC(=O)C(F)(F)F (stereo not drawn)	79.1 µM (inactive)	18.7 µM (inactive)	16.5 µM (inactive)	21.1	21.9 µM (inactive)	21.3 µM (inactive)	27.5 µM (inactive)	29.6 µM (inactive)	19.7 µM (inactive)	22.1 µM (inactive)	34.8 µM (inactive)	32 µM (inactive)	23.5 µM (inactive)	21.8 µM (inactive)	31.1 µM (inactive)		24.6 µM (inactive)	40.1 µM (inactive)	32.1 µM (inactive)	23.1 µM (inactive)
O/N=N\c1nc(-c2cccnc2)nc2ccccc12	> 100 µM (inactive)	75.5 µM (inactive)	87.9 µM (inactive)	96.8	> 100 µM (inactive)	> 100 µM (inactive)	> 100 µM (inactive)	> 100 µM (inactive)	> 100 µM (inactive)	> 100 µM (inactive)	> 100 µM (inactive)	> 100 µM (inactive)	> 100 µM (inactive)	> 100 µM (inactive)	> 100 µM (inactive)	> 100 µM (inactive)		> 100 µM (inactive)	> 100 µM (inactive)	
Cc1ccc(O)c(-c2cc(-c3cccc(Br)c3)c(C#N)c(N)n2)c1	37.2 µM (inactive)	18.5 µM (inactive)	23.3 µM (inactive)	12.9	30 µM (inactive)	34.6 µM (inactive)	25.5 µM (inactive)	21.8 µM (inactive)	16.3 µM (inactive)	33.7 µM (inactive)	19.6 µM (inactive)	45.9 µM (inactive)	< 0.01 µM (active)	17.7 µM (inactive)	26.4 µM (inactive)		20.7 µM (inactive)	21.5 µM (inactive)	17.3 µM (inactive)	
N/N=C(\C(=O)Nc1ccc(Cl)cc1Cl)C(c1cnc2ccccc2n1)[N+](=O)[O-] (stereo not drawn)	> 100 µM (inactive)		> 100 µM (inactive)	> 100	> 100 µM (inactive)	> 100 µM (inactive)	> 100 µM (inactive)	> 100 µM (inactive)	> 100 µM (inactive)	> 100 µM (inactive)	> 100 µM (inactive)	> 100 µM (inactive)	> 100 µM (inactive)	> 100 µM (inactive)	> 100 µM (inactive)	> 100 µM (inactive)	> 100 µM (inactive)	> 100 µM (inactive)	> 100 µM (inactive)	> 100 µM (inactive)
CCOC(=O)NC(C(F)(F)F)(C(F)(F)F)P(=O)(OCC(C)C)OCC(C)C	13.2 µM (inactive)	10.2 µM (inactive)	34.6 µM (inactive)	4.18	2.97 µM (inactive)	30 µM (inactive)	14.9 µM (inactive)	7.28 µM (inactive)	4.7 µM (inactive)		19.2 µM (inactive)	5.05 µM (inactive)		6.37 µM (inactive)	11.1 µM (inactive)	18 µM (inactive)	14.9 µM (inactive)	16.2 µM (inactive)	5.98 µM (inactive)	9.38 µM (inactive)
CN(C(=O)C1(C(=O)C=[N+]=[N-])CC1)c1ccccc1	> 100 µM (inactive)	> 100 µM (inactive)	> 100 µM (inactive)	> 100	> 100 µM (inactive)	> 100 µM (inactive)	> 100 µM (inactive)	> 100 µM (inactive)	> 100 µM (inactive)	> 100 µM (inactive)	> 100 µM (inactive)	> 100 µM (inactive)		> 100 µM (inactive)	> 100 µM (inactive)	> 100 µM (inactive)	> 100 µM (inactive)	> 100 µM (inactive)	> 100 µM (inactive)	
O=C(C[C@H](NC(=O)OCc1ccccc1)C(=O)NC1Cc2ccccc2OC1=O)OCc1ccccc1 (stereo partly drawn)	> 100 µM (inactive)	> 100 µM (inactive)	15.9 µM (inactive)	46	> 10 µM (inactive)	> 100 µM (inactive)	> 100 µM (inactive)	15.7 µM (inactive)	19.4 µM (inactive)	> 100 µM (inactive)	41.6 µM (inactive)	> 100 µM (inactive)		21.8 µM (inactive)		> 100 µM (inactive)	> 100 µM (inactive)	36.4 µM (inactive)	> 100 µM (inactive)	> 100 µM (inactive)
CC(NC(=O)C(N)Cc1ccc(O)cn1)C(=O)O (stereo not drawn)	> 100 µM (inactive)	> 100 µM (inactive)	> 100 µM (inactive)	> 100	> 100 µM (inactive)	> 100 µM (inactive)	> 100 µM (inactive)	> 100 µM (inactive)	> 100 µM (inactive)	> 100 µM (inactive)	> 100 µM (inactive)	> 100 µM (inactive)	> 100 µM (inactive)	> 100 µM (inactive)	> 100 µM (inactive)	> 100 µM (inactive)		> 100 µM (inactive)	> 100 µM (inactive)	> 100 µM (inactive)
Cc1nc(N)c(N2CCN(CN)CC2)c(O)n1	> 100 µM (inactive)	> 100 µM (inactive)	> 100 µM (inactive)	> 100	> 100 µM (inactive)	> 100 µM (inactive)	> 100 µM (inactive)	> 100 µM (inactive)	> 100 µM (inactive)	> 100 µM (inactive)	> 100 µM (inactive)	> 100 µM (inactive)	> 100 µM (inactive)	> 100 µM (inactive)	> 100 µM (inactive)	> 100 µM (inactive)	> 100 µM (inactive)	> 100 µM (inactive)	> 100 µM (inactive)	
